Results as given in US20060246106A1, “Infection resistant medical implants” (priority 2005, published 2006).
≈ marks a conversion by molar mass, not a printed value. Read-outs that look alike come from different tables or passages of the source. One block for each compound: values may come before it.

What was measured:
[1] = system: Escherichia coli; experiment: MIC/MBC, antibiotic dilutions in Mueller-Hinton Broth; type: cell-based; conditions: E. coli, antibiotic alone
Method: The term “MIC” refers to the lowest concentration of antibiotic that inhibits in vitro bacterial growth. The term “MBC” refers to the lowest concentration of antibiotic that totally kills 99.9% of the inoculum. The principle of the test is to add dilutions of an antibiotic to Mueller-Hinton Broth and a standard concentration of the inoculum. Tubes are incubated overnight and read visually for turbidity. The lowest concentration showing no visible growth is the MIC. To establish the MBC broth cultures showing no visible growth are sub-cultured onto appropriate agar and incubated to determine if the organism has been killed.

[2] = elution rate: rifampicin/tobramycin content remaining on the graft; type: in vivo; conditions: graft harvested from dog, one line per dog; for concentration at 7 days / concentration at 14 days / concentration at 21 days: dog, explanted graft, other: graft implanted end to end in the infrarenal aorta
Method: Two grafts were harvested after week 1, two grafts after week 2 and the final two grafts were harvested after week 3. Immediately after harvesting, the grafts were prepared for antibiotic analysis. […] The graft samples required the rifampicin to be extracted from the graft material. The extraction procedure was as follows. A volume of methanol equivalent to 3 times the dry weight of the graft was added. […] The supernatant was then injected directly into the HPLC. […] The graft samples required the tobramycin to be extracted from the graft material. The extraction procedure was as follows. […] The supernatant was then injected directly into the PFIA. The extraction was repeated on the same graft sample to ensure that all the tobramycin had been extracted.

[3] = dog, in vivo
Method: (§1) Serum samples were collected from the dogs at the same time as the samples for liver and kidney function tests.
(§2) The analytical method for graft samples and serum samples was identical. The method used a HPLC system with a Hypersil 5 ODS column with UV detection at a wavelength of 254 nm. The mobile phase used was a 70:30 0.2M phosphate buffer pH 6.0: acetonitrile. The limit of detection for this method is 0.1 mg/Kg graft or 0.1 mg/litre serum.
(§3) These samples were mixed 50:50 with methanol and left to stand for 1 minute. After this time the solution was centrifuged for 5 minutes at maximum speed in a Microcentaur centrifuge. The supernatant was then used for analysis.
(§4) The analytical method for serum samples and graft samples was identical. The technique used to measure the tobramycin was Polarisation FluoroImmuno Assay (PFIA) using an Abbott FLX instrument using the reverse dilution protocol with a sample volume of 5 μl. The limit of detection for this method is 0.4 mg/Kg graft or 0.4 mg/litre serum.
(§5) The serum samples were analysed directly using the Abbot FLX instrument.

[4] = in vivo; conditions: dog
Method: as §1, §2, §3, §4, §5

- MIC [1]: 3.12 µg/mL (≈ 6.67 µM)
- concentration at 7 days ([2]; Implant Duration 7 Days, read-out: Tobramycin Content, 1st Extraction): 4800 ng/g
- concentration at 7 days ([2]; Implant Duration 7 Days, read-out: Tobramycin Content, 2nd Extraction): < 400 ng/g
- concentration at 7 days ([2]; Implant Duration 7 Days, read-out: Tobramycin Content, Total): 4800 ng/g
- concentration at 14 days ([2]; Implant Duration 14 Days, read-out: Tobramycin Content, 1st Extraction): 510 ng/g
- concentration at 14 days ([2]; Implant Duration 14 Days, read-out: Tobramycin Content, 2nd Extraction): < 400 ng/g
- concentration at 14 days ([2]; Implant Duration 14 Days, read-out: Tobramycin Content, Total): 510 ng/g
- concentration at 21 days ([2]; Implant Duration 21 Days, read-out: Tobramycin Content, 1st Extraction): < 400 ng/g
- concentration at 21 days ([2]; Implant Duration 21 Days, read-out: Tobramycin Content, 2nd Extraction): < 400 ng/g
- concentration at 21 days ([2]; Implant Duration 21 Days, read-out: Tobramycin Content, Total): < 400 ng/g
- Tobramycin Content, 1st Extraction ([2]; Implant Duration 7 Days): 3.96 mg/Kg graft
- Tobramycin Content, 2nd Extraction ([2]; Implant Duration 7 Days): <0.4 mg/Kg graft
- Tobramycin Content, Total ([2]; Implant Duration 7 Days): 3.96 mg/Kg graft
- Tobramycin Content, 1st Extraction ([2]; Implant Duration 14 Days): <0.4 mg/Kg graft
- Tobramycin Content, 2nd Extraction ([2]; Implant Duration 14 Days): <0.4 mg/Kg graft
- Tobramycin Content, Total ([2]; Implant Duration 14 Days): <0.4 mg/Kg graft
- Tobramycin Content, 1st Extraction ([2]; Implant Duration 21 Days): <0.4 mg/Kg graft
- Tobramycin Content, 2nd Extraction ([2]; Implant Duration 21 Days): <0.4 mg/Kg graft
- Tobramycin Content, Total ([2]; Implant Duration 21 Days): <0.4 mg/Kg graft
- tobramycin present in the serum of the test dogs [3]: no detectable amount
- Tobramycin Content (serum) ([3]; 1 day): <0.4 mg/litre serum
- Tobramycin Content (serum) ([3]; 3 day): <0.4 mg/litre serum
- Tobramycin Content (serum) ([3]; 7 day): <0.4 mg/litre serum
- Tobramycin Content (serum) ([3]; 14 day): <0.4 mg/litre serum
- Tobramycin Content (serum) ([3]; 21 day): <0.4 mg/litre serum
- concentration at 1 day [4]: < 400 ng/mL
- concentration at 3 day [4]: < 400 ng/mL
- concentration at 7 day [4]: < 400 ng/mL
- concentration at 14 day [4]: < 400 ng/mL
- concentration at 21 day [4]: < 400 ng/mL
Structure (SMILES): NC[C@H]1O[C@H](O[C@H]2[C@H](O)[C@@H](O[C@H]3O[C@H](CO)[C@@H](O)[C@H](N)[C@H]3O)[C@H](N)C[C@@H]2N)[C@H](N)C[C@@H]1O [Tobramycin, tobramycin]
- MBC [1]: 6.25 µg/mL (≈ 13.4 µM)

- MIC [1]: 16.2 µg/mL (≈ 19.7 µM)
- concentration at 7 days ([2]; Implant Duration 7 Days, read-out: Rifampicin Content, 1st Extraction): 890 ng/g
- concentration at 7 days ([2]; Implant Duration 7 Days, read-out: Rifampicin Content, 2nd Extraction): < 100 ng/g
- concentration at 7 days ([2]; Implant Duration 7 Days, read-out: Rifampicin Content, Total): 890 ng/g
- concentration at 14 days ([2]; Implant Duration 14 Days, read-out: Rifampicin Content, 1st Extraction): 730 ng/g
- concentration at 14 days ([2]; Implant Duration 14 Days, read-out: Rifampicin Content, 2nd Extraction): < 100 ng/g
- concentration at 14 days ([2]; Implant Duration 14 Days, read-out: Rifampicin Content, Total): 730 ng/g
- concentration at 21 days ([2]; Implant Duration 21 Days, read-out: Rifampicin Content, 1st Extraction): 340 ng/g
- concentration at 21 days ([2]; Implant Duration 21 Days, read-out: Rifampicin Content, 2nd Extraction): < 100 ng/g
- concentration at 21 days ([2]; Implant Duration 21 Days, read-out: Rifampicin Content, Total): 340 ng/g
- Rifampicin Content, 1st Extraction ([2]; Implant Duration 7 Days): 0.94 mg/Kg graft
- Rifampicin Content, 2nd Extraction ([2]; Implant Duration 7 Days): <0.1 mg/Kg graft
- Rifampicin Content, Total ([2]; Implant Duration 7 Days): 0.94 mg/Kg graft
- Rifampicin Content, 1st Extraction ([2]; Implant Duration 14 Days): 1.24 mg/Kg graft
- Rifampicin Content, 2nd Extraction ([2]; Implant Duration 14 Days): <0.1 mg/Kg graft
- Rifampicin Content, Total ([2]; Implant Duration 14 Days): 1.24 mg/Kg graft
- Rifampicin Content, 1st Extraction ([2]; Implant Duration 21 Days): 0.52 mg/Kg graft
- Rifampicin Content, 2nd Extraction ([2]; Implant Duration 21 Days): <0.1 mg/Kg graft
- Rifampicin Content, Total ([2]; Implant Duration 21 Days): 0.52 mg/Kg graft
- quantity of rifampicin equated to an average human ([3]; 1 day): 1.15 mg
- concentration at 1 day [4]: 230 ng/mL
- concentration at 3 day [4]: < 100 ng/mL
- concentration at 7 day [4]: < 100 ng/mL
- concentration at 14 day [4]: < 100 ng/mL
- concentration at 21 day [4]: < 100 ng/mL
Structure (SMILES): CO[C@H]1/C=C/O[C@@]2(C)Oc3c(C)c(O)c4c(O)c(c(/C=N/N5CCN(C)CC5)c(O)c4c3C2=O)NC(=O)/C(C)=C\C=C\[C@H](C)[C@H](O)[C@@H](C)[C@@H](O)[C@@H](C)[C@H](OC(C)=O)[C@@H]1C [Rifampicin, rifampicin]
- MBC [1]: 32.5 µg/mL (≈ 39.5 µM)
